Measurements published in patent US20170119776A1, “CHIRAL 2,5-DISUBSTITUTED CYCLOPENTANECARBOXYLIC ACID DERIVATIVES AND USE THEREOF” (BAYER PHARMA AKTIENGESELLSCHAFT, priority 2014, published 2017).

How the values were obtained:
Format in all cases: biochemical
MMP-7 = biological target: T1, MMP-7 (Homo sapiens, UniProt P09237); assay: In vitro MMP-7 inhibition test
T1 construct: purchased R&D Systems 907-MP
T1 sequence (P09237 95-267): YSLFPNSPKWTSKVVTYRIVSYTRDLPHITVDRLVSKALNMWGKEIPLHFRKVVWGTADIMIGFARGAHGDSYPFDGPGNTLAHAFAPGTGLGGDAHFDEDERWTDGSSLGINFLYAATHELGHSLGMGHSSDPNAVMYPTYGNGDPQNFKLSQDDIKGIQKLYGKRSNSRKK
From the text: (§1) The activity strength of the compounds according to the invention towards other MMPs (and therefore their selectivity) is likewise ascertained in in vitro inhibition tests. The MMP-mediated amidolytic cleavage of a suitable peptide substrate also leads here to a fluorescent light increase. The signal intensity of the fluorescent light is directly proportional to the enzyme activity. The active concentration of a test compound at which half of the enzyme is inhibited (50% signal intensity of the fluorescent light) is given as IC50 value.
(§2) Recombinant MMP-7 (R&D Systems, 907-MP) is chemically activated in accordance with the manufacturer's instructions using APMA. 1 μl of the test compound to be analysed (as a solution in DMSO, suitable concentrations e.g. 1 nM to 30 μM) is pipette into 24 μl of activated enzyme (final concentration e.g. 0.5 nM) in reaction buffer (50 mM Tris/HCl pH 7.5, 10 mM CaCl2, 150 mM NaCl, 0.05% Brij®-35) in a white 384-hole microtiter plate (MTP). The enzymatic reaction is started by adding the intramolecularly quenched substrate Mca-Pro-Leu-Gly-Leu-Dpa(Dnp)-Ala-Arg-NH2 (final concentration e.g. 10 μM; R&D Systems, ES-001), such that a total test volume of 50 μl results. The progress of the MMP-7 reaction is measured by measuring the fluorescence intensity (excitation 320 nm, emission 410 nm) over a suitable period (e.g. over 120 min at a temperature of 32° C.).
(§3) The IC50 values were determined for racemates and enantiomers from differently generated DMSO stock solutions. Whereas an automatically produced DMSO stock solution from the internal substance logistics was used for racemates by means of a standard method, in the case of enantiomers a freshly produced, manually prepared DMSO stock solution was used in each case for a more precise direct comparison of the enantiomers with one another.

MMP-12 of the rat = biological target: T2, MMP-12 of the rat (Rattus norvegicus, UniProt Q63341); assay: In vitro MMP-12 inhibition test of the rat
T2 construct: MMP-12 of the rat (Uniprot NP_446415.1; construct L96-V277); made in house; host or cells: E. coli (BL21), pDEco7 vector
From the text: as §1
MMP-12 of the rat (Uniprot NP_446415.1; construct L96-V277) is expressed with an additional N-terminal His-Tag and a consecutive TEV cleavage sequence by means of a pDEco7 vector in E. coli (BL21). The thus recombinantly expressed protein forms an intracellular insoluble protein compartment (so-called inclusion body). This is solubilized after separation and intensive washing under denaturing conditions. For this, the inclusion body pellet fraction from a 250 ml E. coli culture is taken up in a volume of 120 ml of buffer A (50 mM Tris pH 7.4, 100 mM NaCl, 0.03 mM ZnCl2, 10 mM CaCl2, 8 M urea). The soluble protein is renatured by in each case dialysing 60 ml of the sample several times at 4-8° C. against buffer B (50 mM Tris pH 7.4, 100 mM NaCl, 0.03 mM ZnCl2, 10 mM CaCl2). After the dialysis, the sample is centrifuged (25 000×g). The folded-back protein is obtained in the supernatant with a yield of 3.7 mg per 250 ml E. coli culture. The thus obtained protein is enzymatically active without further purification operations or protease-mediated cleavage processes.
as §2, with “1” for “Recombinant MMP-7 (R&D Systems, 907-MP) is chemically activated in accordance with the manufacturer's instructions using APMA. 1”, “is pipetted” for “is pipette”, “of MMP-12 protein” for “of activated enzyme”, “e.g. 1” for “e.g. 0.5”, “e.g. 5” for “e.g. 10”, “the MMP-12” for “the MMP-7”
Tables 3A and 3B below give the IC50 values from these tests for the inhibition of rodent MMPs for representative embodiment examples of the present invention and also for two structurally related comparison compounds from the prior art (as racemate and separated enantiomer)→(in part as average values from several independent individual determinations and rounded to two significant places). The IC50 values were determined for racemates and enantiomers from differently generated DMSO stock solutions. Whereas an automatically created DMSO stock solution from the internal substance logistics was used for racemates by means of a standard method, in the case of enantiomers, in each case a freshly produced, manually prepared DMSO stock solution was used for a more precise direct comparison of the enantiomers with one another.

MMP-9 = biological target: T3, MMP-9 (Homo sapiens, UniProt P14780); assay: In vitro MMP-9 inhibition test
T3 construct: purchased R&D Systems 911-MP
From the text: as §1
as §2, with “MMP-9” for “MMP-7”, “911-MP)” for “907-MP)”, “0.1” for “0.5”
as §3

T2 sequence (Q63341 96-277): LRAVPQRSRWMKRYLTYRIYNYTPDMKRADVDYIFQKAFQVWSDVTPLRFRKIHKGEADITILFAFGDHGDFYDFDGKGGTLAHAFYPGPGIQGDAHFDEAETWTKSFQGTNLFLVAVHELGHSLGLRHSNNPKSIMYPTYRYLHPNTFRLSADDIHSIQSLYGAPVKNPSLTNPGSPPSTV
T3 sequence (P14780 107-707 limits assumed): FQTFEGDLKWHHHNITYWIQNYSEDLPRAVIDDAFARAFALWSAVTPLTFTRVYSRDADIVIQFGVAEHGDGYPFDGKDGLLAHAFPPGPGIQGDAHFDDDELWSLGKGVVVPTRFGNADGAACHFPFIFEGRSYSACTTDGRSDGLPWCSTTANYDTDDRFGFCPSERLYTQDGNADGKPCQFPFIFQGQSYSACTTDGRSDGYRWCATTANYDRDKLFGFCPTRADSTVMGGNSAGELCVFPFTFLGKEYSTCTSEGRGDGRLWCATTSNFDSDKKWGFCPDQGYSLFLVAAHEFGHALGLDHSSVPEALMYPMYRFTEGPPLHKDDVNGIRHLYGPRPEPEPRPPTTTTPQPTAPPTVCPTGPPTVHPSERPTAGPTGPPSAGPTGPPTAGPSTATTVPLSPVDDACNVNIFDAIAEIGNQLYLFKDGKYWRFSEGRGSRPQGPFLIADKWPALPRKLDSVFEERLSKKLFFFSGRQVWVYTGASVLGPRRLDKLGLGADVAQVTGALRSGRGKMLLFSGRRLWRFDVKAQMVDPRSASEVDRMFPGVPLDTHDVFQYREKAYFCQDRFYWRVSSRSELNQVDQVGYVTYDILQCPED

IC50 (MMP-7) | IC50 (MMP-12 of the rat) | IC50 (MMP-9) | Structure (SMILES)
310 nM | < 0.61 nM | 1.9 nM | O=C(O)[C@H]1[C@H](Cn2nnc3ccccc3c2=O)CC[C@@H]1C(=O)c1ccc(-c2ccc(Cl)cc2)cc1 (racemic) [Comparative Example A-1, (1RS,2RS,5SR)-2-[(4′-chlorobiphenyl-4-yl)carbonyl]-5-[(4-oxo-1,2,3-benzotriazin-3(4H)-yl)methyl]cyclopentanecarboxylic acid (racemate)]
145 nM | < 0.61 nM | 1.1 nM | O=C(O)[C@@H]1[C@@H](Cn2nnc3ccccc3c2=O)CC[C@H]1C(=O)c1ccc(-c2ccc(Cl)cc2)cc1 (single isomer, unassigned; enantiomer 2) [Comparative Example A-3, (1RS,2RS,5SR)-2-[(4′-Chlorobiphenyl-4-yl)carbonyl]-5-[(4-oxo-1,2,3-benzotriazin-3(4H)-yl)methyl]cyclopentanecarboxylic acid (enantiomer 2)]
500 nM | < 1 nM | 30 nM | O=C(O)[C@H]1[C@H](Cn2nnc3ccccc3c2=O)CC[C@@H]1C(=O)c1ccc(OCc2ccccc2)cc1 (racemic) [Example 1, (+/−)-(1RS,2RS,5SR)-2-[4-(Benzyloxy)benzoyl]-5-[(4-oxo-1,2,3-benzotriazin-3(4H)-yl)methyl]cyclopentanecarboxylic acid (racemate)]
> 40000 nM | 29.3 nM | 1400 nM | CCCCCOc1ccc(C(=O)CC(CCn2nnc3ccccc3c2=O)C(=O)O)cc1 (racemic) [Comparative Example B-1, (+/−)-4-Oxo-2-[2-(4-oxo-1,2,3-benzotriazin-3(4H)-yl)ethyl]-4-[4-(pentyloxy)phenyl]butanoic acid (racemate)]
22500 nM | 24.5 nM | 625 nM | CCCCCOc1ccc(C(=O)CC(CCn2nnc3ccccc3c2=O)C(=O)O)cc1 (single isomer, unassigned; enantiomer 1) [Comparative Example B-2, (+)-4-Oxo-2-[2-(4-oxo-1,2,3-benzotriazin-3(4H)-yl)ethyl]-4-[4-(pentyloxy)phenyl]butanoic acid (enantiomer 1)]
420 nM | < 0.61 nM | 23 nM | O=C(O)[C@H]1[C@H](Cn2nnc3ccccc3c2=O)CC[C@@H]1C(=O)c1ccc(OCc2ccccc2)cc1 [Example 2, (+)-(1S,2S,5R)-2-[4-(Benzyloxy)benzoyl]-5-[(4-oxo-1,2,3-benzotriazin-3(4H)-yl)methyl]cyclopentanecarboxylic acid]
